Test results published in ChEMBL document CHEMBL1201862, “PubChem BioAssay data set” (2004).
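How tested: cells in 96-well plates exposed to compound for 48 hours at five concentrations. Here, GI50 denotes the concentration required for 50% inhibition of growth.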 Active and inactive are the calls of the source. Rule as the data show it: active = GI50 up to about 1.1 µM and inactive = higher.

Key:
Experiment in all cases: NCI tumour cell line growth inhibition, 48 h
[1] = test system: 786-0
[2] = test system: A498
[3] = test system: A549
[4] = test system: ACHN
[5] = test system: CAKI-1
[6] = test system: CCRF-CEM
[7] = test system: COLO 205
[8] = test system: DLD-1
[9] = test system: DMS-114
[10] = test system: DMS-273
[11] = test system: EKVX
[12] = test system: HCC 2998
[13] = test system: HCT-116
[14] = test system: HCT-15
[15] = test system: HL-60
[16] = test system: HOP-18
[17] = test system: HOP-62
[18] = test system: HOP-92
[19] = test system: HT-29
[20] = test system: IGROV-1
[21] = test system: K562
[22] = test system: KM-20L2
[23] = test system: KM12
[24] = test system: LOX IMVI
[25] = test system: LXFL 529
[26] = test system: M14
[27] = test system: M19-MEL
[28] = test system: MOLT-4
[29] = test system: Malme-3M
[30] = test system: NCI-H226
[31] = test system: NCI-H23
[32] = test system: NCI-H460
[33] = test system: NCI-H522
[34] = test system: OVCAR-3
[35] = test system: OVCAR-4
[36] = test system: OVCAR-5
[37] = test system: OVCAR-8
[38] = test system: RPMI-8226
[39] = test system: RXF 393
[40] = test system: SF-268
[41] = test system: SF-295
[42] = test system: SF-539
[43] = test system: SK-MEL-28
[44] = test system: SK-MEL-5
[45] = test system: SK-OV-3
[46] = test system: SN12C
[47] = test system: SNB-19
[48] = test system: SNB-75
[49] = test system: SNB-78
[50] = test system: SW-620
[51] = test system: TK-10
[52] = test system: U-251
[53] = test system: UACC-257
[54] = test system: UACC-62
[55] = test system: UO-31
[56] = test system: XF498

`Cc1ccccc1NC(=O)c1ccc([N+](=O)[O-])cc1` was tested, and the GI50 [1] was > 100 µM (inactive), the GI50 [2] was > 100 µM (inactive) and the GI50 [3] was > 100 µM (inactive). For the same compound, the GI50 [4] was > 100 µM (inactive), the GI50 [5] was > 100 µM (inactive) and the GI50 [6] was > 100 µM (inactive). For the same compound, the GI50 [7] was > 100 µM (inactive), the GI50 [8] was > 100 µM (inactive) and the GI50 [9] was 74 µM (inactive). For the same compound, the GI50 [10] was 80.5 µM (inactive), the GI50 [11] was > 100 µM (inactive) and the GI50 [12] was > 100 µM (inactive). For the same compound, the GI50 [13] was > 100 µM (inactive), the GI50 [14] was 66.2 µM and the GI50 [15] was 46.8 µM (inactive). For the same compound, the GI50 [16] was > 100 µM (inactive), the GI50 [17] was > 100 µM (inactive) and the GI50 [18] was > 100 µM (inactive). For the same compound, the GI50 [19] was 51.1 µM (inactive), the GI50 [20] was > 100 µM (inactive) and the GI50 [21] was 93.5 µM (inactive). The GI50 [22] was > 100 µM (inactive), the GI50 [23] was 67.5 µM (inactive) and the GI50 [24] was > 100 µM (inactive). The GI50 [25] was > 100 µM (inactive), the GI50 [26] was > 100 µM (inactive) and the GI50 [27] was > 100 µM (inactive). For the same compound, the GI50 [28] was > 100 µM (inactive), the GI50 [29] was > 100 µM (inactive) and the GI50 [30] was > 100 µM (inactive). For the same compound, the GI50 [31] was > 100 µM (inactive), the GI50 [32] was > 100 µM (inactive) and the GI50 [33] was 28 µM (inactive). The GI50 [34] was 53.5 µM (inactive), the GI50 [35] was > 100 µM (inactive) and the GI50 [36] was > 100 µM (inactive). The GI50 [37] was > 100 µM (inactive), the GI50 [38] was > 100 µM (inactive) and the GI50 [39] was 15.8 µM (inactive). For the same compound, the GI50 [40] was > 100 µM (inactive), the GI50 [41] was > 100 µM (inactive) and the GI50 [42] was > 100 µM (inactive). The GI50 [43] was > 100 µM (inactive), the GI50 [44] was 84.9 µM (inactive) and the GI50 [45] was > 100 µM (inactive). For the same compound, the GI50 [46] was > 100 µM (inactive), the GI50 [47] was > 100 µM (inactive) and the GI50 [48] was > 100 µM (inactive). The GI50 [49] was > 100 µM (inactive), the GI50 [50] was > 100 µM (inactive) and the GI50 [51] was 97.3 µM (inactive). For the same compound, the GI50 [52] was > 100 µM (inactive), the GI50 [53] was > 100 µM (inactive) and the GI50 [54] was > 100 µM (inactive). The GI50 [55] was > 100 µM (inactive) and the GI50 [56] was > 100 µM (inactive).
